Data set [1] can be described thus: Inhibition of TEM1 beta-lactamase assessed as residual activity at 100 uM at pH 7 using phosphate buffer by spectrophotometry; values are per cent of control.
For data set [2], the system named is Bacillus cereus. Nature of the data set: Inhibition of Bacillus cereus BC2 beta-lactamase assessed as residual activity at 100 uM at pH 5 using acetate buffer by spectrophotometry; values are per cent of control.
Data set [3] has as its target Beta-lactamase OXA-10 (Pseudomonas aeruginosa) (UniProt P14489). The experiment in a line: Inhibition of Pseudomonas aeruginosa OXA10 beta-lactamase assessed as residual activity at 100 uM at pH 5 using acetate buffer by spectrophotometry; values are per cent of control.
The target in data set [4] is Beta-lactamase (Enterobacter cloacae) (UniProt P05364). Nature of the data set: Inhibition of Enterobacter cloacae P99 beta-lactamase assessed as residual activity at 100 uM at pH 7 using phosphate buffer by spectrophotometry; values are per cent of control.
Data set [5] has as its target T1, Imipenem-hydrolyzing beta-lactamase (Enterobacter cloacae) (UniProt P52663).
T1 sequence (whole entry): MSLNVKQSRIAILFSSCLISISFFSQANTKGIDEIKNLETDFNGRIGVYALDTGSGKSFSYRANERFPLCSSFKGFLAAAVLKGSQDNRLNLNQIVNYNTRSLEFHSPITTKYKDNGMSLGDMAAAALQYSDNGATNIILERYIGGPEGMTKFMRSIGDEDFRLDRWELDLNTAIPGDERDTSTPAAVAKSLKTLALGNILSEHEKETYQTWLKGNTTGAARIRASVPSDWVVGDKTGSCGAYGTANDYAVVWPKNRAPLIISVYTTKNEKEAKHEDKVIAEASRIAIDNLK
Nature of the data set: Inhibition of Enterobacter cloacae NMCA beta-lactamase assessed as residual activity at 100 uM at pH 7 using phosphate buffer by spectrophotometry; values are per cent of control.

Data set [6] has as its target Beta-lactamase VIM-4 (Pseudomonas aeruginosa) (UniProt Q8KRJ3). The experiment in a line: Inhibition of Pseudomonas aeruginosa VIM4 beta-lactamase assessed as residual activity at 100 uM at pH 7 using HEPES buffer by spectrophotometry; values are per cent of control.
The nature of data set [7]: Inhibition of TEM1 beta-lactamase assessed as residual activity at 100 uM at pH 5 using acetate buffer by spectrophotometry; values are per cent of control.
The test system of data set [8] is Bacillus cereus. Nature of the data set: Inhibition of Bacillus cereus BC2 beta-lactamase assessed as residual activity at 100 uM at pH 7 using HEPES buffer by spectrophotometry; values are per cent of control.
Data set [9] has as its target Beta-lactamase OXA-10 (Pseudomonas aeruginosa) (UniProt P14489). Nature of the data set: Inhibition of Pseudomonas aeruginosa OXA10 beta-lactamase assessed as residual activity at 100 uM at pH 7 using phosphate buffer by spectrophotometry; values are per cent of control.
Data set [10] concerns the target Beta-lactamase (Bacillus licheniformis) (UniProt P00808). Nature of the data set: Inhibition of Bacillus licheniformis BS3 beta-lactamase assessed as residual activity at 100 uM at pH 5 using acetate buffer by spectrophotometry; values are per cent of control.
Data set [11] deals with Beta-lactamase (Enterobacter cloacae) (UniProt P05364). Nature of the data set: Inhibition of Enterobacter cloacae P99 beta-lactamase assessed as residual activity at 100 uM at pH 5 using acetate buffer by spectrophotometry; values are per cent of control.
Data set [12] concerns the target Beta-lactamase (Bacillus licheniformis) (UniProt P00808). Nature of the data set: Inhibition of Bacillus licheniformis BS3 beta-lactamase assessed as residual activity at 100 uM at pH 7 using phosphate buffer by spectrophotometry; values are per cent of control.
The target of data set [13] is T1, Imipenem-hydrolyzing beta-lactamase (Enterobacter cloacae). Nature of the data set: Inhibition of Enterobacter cloacae NMCA beta-lactamase assessed as residual activity at 100 uM at pH 5 using acetate buffer by spectrophotometry; values are per cent of control.
The target in another data set is Beta-lactamase (Bacillus licheniformis, UniProt P00808). Nature of the data set: Inhibition of Bacillus licheniformis BS3 beta-lactamase at pH 5.
For data set [14], the target named is T1, Imipenem-hydrolyzing beta-lactamase (Enterobacter cloacae). Nature of the data set: Ratio of Kcat to Km for Enterobacter cloacae NMCA beta-lactamase.
Data set [15] is described as follows: Ratio of Kcat to Km for TEM1 beta-lactamase.
For data set [16], the system named is Bacillus cereus. Nature of the data set: Activity of Bacillus cereus BC2 beta-lactamase.
A short description of data set [17]: Activity of TEM1 beta-lactamase.
The test system of data set [18] is Bacillus cereus. Nature of the data set: Ratio of Kcat to Km for Bacillus cereus BC2 beta-lactamase.
Data set [19] has as its target Beta-lactamase OXA-10 (Pseudomonas aeruginosa) (UniProt P14489). The experiment in a line: Ratio of Kcat to Km for Pseudomonas aeruginosa OXA10 beta-lactamase.
For data set [20], the target named is Beta-lactamase VIM-4 (Pseudomonas aeruginosa) (UniProt Q8KRJ3). The experiment in a line: Ratio of Kcat to Km for Pseudomonas aeruginosa VIM4 beta-lactamase.
The subject of data set [21] is O=C(Cc1cccs1)N[C@@H]1C(=O)N2C(C(=O)O)=C(/C=C/c3ccc([N+](=O)[O-])cc3[N+](=O)[O-])CS[C@H]12. The experiment in a line: Activity of Pseudomonas aeruginosa VIM4 beta-lactamase.
Substrate in data set [22]: O=C(Cc1cccs1)N[C@@H]1C(=O)N2C(C(=O)O)=C(/C=C/c3ccc([N+](=O)[O-])cc3[N+](=O)[O-])CS[C@H]12
The experiment in a line: Activity of Pseudomonas aeruginosa OXA10 beta-lactamase.

Substrate in data set [23]: O=C(Cc1cccs1)N[C@@H]1C(=O)N2C(C(=O)O)=C(/C=C/c3ccc([N+](=O)[O-])cc3[N+](=O)[O-])CS[C@H]12
The experiment in a line: Activity of Enterobacter cloacae NMCA beta-lactamase.

The source of these data is ChEMBL document CHEMBL1158443, “Discovery of novel lipophilic inhibitors of OXA-10 enzyme (class D beta-lactamase) by screening amino analogs and homologs of citrate and isocitrate” (Bioorg Med Chem Lett, 2009).

Chain of Beta-lactamase (Enterobacter cloacae) (P05364 21-381 limits assumed): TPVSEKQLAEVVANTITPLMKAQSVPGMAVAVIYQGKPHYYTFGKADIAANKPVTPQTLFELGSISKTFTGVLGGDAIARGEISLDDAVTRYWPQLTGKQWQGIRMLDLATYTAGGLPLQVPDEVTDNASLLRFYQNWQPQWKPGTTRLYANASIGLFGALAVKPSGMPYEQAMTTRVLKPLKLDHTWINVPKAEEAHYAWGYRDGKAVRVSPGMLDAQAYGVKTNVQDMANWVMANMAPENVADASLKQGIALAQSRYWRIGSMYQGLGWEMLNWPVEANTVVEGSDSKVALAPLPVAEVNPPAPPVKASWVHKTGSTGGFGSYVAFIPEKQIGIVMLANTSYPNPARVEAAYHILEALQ
Chain of Beta-lactamase (Bacillus licheniformis) (P00808 whole entry): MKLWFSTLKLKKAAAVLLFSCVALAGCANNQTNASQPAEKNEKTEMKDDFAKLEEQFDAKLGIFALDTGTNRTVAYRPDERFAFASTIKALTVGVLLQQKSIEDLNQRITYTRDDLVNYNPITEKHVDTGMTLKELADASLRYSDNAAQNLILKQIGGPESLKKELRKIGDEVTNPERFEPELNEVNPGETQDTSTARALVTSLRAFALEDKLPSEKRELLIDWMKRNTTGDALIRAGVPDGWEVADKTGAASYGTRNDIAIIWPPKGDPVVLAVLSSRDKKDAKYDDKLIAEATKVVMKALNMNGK
Chain of Beta-lactamase (P00808 whole entry): as above

Broadly, the residual activity is the activity still measured, relative to the control. Take `COC(=O)C(N)(CC(=O)O)CC(=O)O`: the residual activity was 99% in [1]; 90% in the data set on Bacillus cereus [2]; 83% in data set [3]; 100% in data set [4]; 94% in [5]; 100% in data set [6]. The residual activity was 92% in data set [7]; 100% in the data set with Bacillus cereus [8]; 96% in data set [9]; 97% in data set [10]; 93% in [11]; 96% in [12]. The residual activity in [13] was 96%.
`CCOC(=O)C1CC(=O)NC1C(=O)OCC` (stereo not given): the residual activity in [1] was found to be 100%; with Bacillus cereus [2] it was 100%; in data set [3], 87%; in [4] it was 100%; in [5] it was 100%; in [6], 94%. Also, the residual activity in data set [7] worked out at 86%; in data set [9], 91%; in [10], 100%; in data set [11], 100%; in [12], 100%; in data set [13], 93%.
In general, Ki refers to the dissociation constant of the complex between target and ligand, obtained from inhibition or displacement. Low values mean a stronger hold on the target, high ones a looser hold on the target. `O=C(O)CC(C(=O)O)C(O)C(=O)O` (stereo not given) [ISOCITRATE] came in with a Ki on Beta-lactamase of 2.2 mM.
Regarding `COC(=O)CC(N)(CC(=O)OC)C(=O)OCc1ccccc1`, the residual activity (in the data set on Bacillus cereus [2]; in data set [9]) was 100% each time.
As to `COC(=O)C(CC(=O)OCc1ccccc1)(CC(=O)OCc1ccccc1)NC(=O)COc1ccccc1`, in [9], the residual activity was determined as 10%.
As to `NC(C(=O)O)C(CC(=O)O)C(=O)O` (stereo not given), the residual activity in [1] was 100%; in the data set on Bacillus cereus [2], 100%; in data set [3], 85%; in data set [4] it was 100%; in data set [5], 100%; in data set [6], 94%. Further, the residual activity in [7] worked out at 90%; in data set [9], 92%; in data set [10], 97%; in data set [11], 94%; in data set [12], 85%; in data set [13], 86%.
As to `COC(=O)C(CC(=O)O)(CC(=O)O)NC(=O)COc1ccccc1`, the residual activity in data set [1] stood at 98%; with Bacillus cereus [2], 100%; in [4] it was 85%; in data set [5], 66%; in [6], 100%; in the data set on Bacillus cereus [8] it was 86%. For the same molecule, the figures for the residual activity in data set [9] and in [12] were 100% and 96%, respectively.
Broadly, the Km is the concentration of substrate that gives half-maximal velocity. As a reminder, the kcat is the number of substrate molecules converted per active site and unit of time at saturation. In the case of `O=C(Cc1cccs1)N[C@@H]1C(=O)N2C(C(=O)O)=C(/C=C/c3ccc([N+](=O)[O-])cc3[N+](=O)[O-])CS[C@H]12`, the Ratio in data set [14] turned out to be 3.5 ×10⁶ /M/s; in data set [15], 2.5 ×10⁶ /M/s; in the data set with Bacillus cereus [18] it was 4 ×10⁶ /M/s; in data set [19], 2 ×10⁷ /M/s; in data set [20] it was 4 ×10⁶ /M/s. Besides, the Km came out at 10 µM in the data set with Bacillus cereus [16] and 20 µM in [17]. Moreover, the kcat worked out at 40 s⁻¹ with Bacillus cereus [16] and 50 s⁻¹ in data set [17].
For the molecule `COC(=O)CC(CC(=O)OC)(NC(=O)Cc1ccccc1)C(=O)OC`, the residual activity in the data set on Bacillus cereus [8] amounted to 100%.
As to `O=C(O)CC(O)(CC(=O)O)C(=O)O` [CITRIC ACID], at Beta-lactamase, the inhibition constant (Ki) stood at 0.49 mM.
Take `CCOC(=O)CC(N)(CC(=O)OCC)C(=O)OCC`: the residual activity was determined as 71% in data set [1]; 93% with Bacillus cereus [2]; 87% in data set [4]; 92% in the data set on Bacillus cereus [8]; 82% in data set [12].
As for “Beta-lactamase VIM-4 (Pseudomonas aeruginosa) (from UniProt Q8KRJ3)”, in [21], the Km was 10 µM and the kcat came out at 40 s⁻¹.
Regarding `COC(=O)C(N)(CC(=O)OCc1ccccc1)CC(=O)OCc1ccccc1`, the residual activity in data set [1] amounted to 81%; with Bacillus cereus [2] it was 93%; in data set [4], 100%; in data set [5] it was 63%; with Bacillus cereus [8], 100%; in [9], 100%. In addition, the residual activity in [12] is 100%.
As for `COC(=O)CC(N)(CC(=O)OC)C(=O)O`, the residual activity is 99% in [1]; 100% in the data set with Bacillus cereus [2]; 79% in data set [3]; 100% in data set [4]; 95% in data set [5]; 100% in [6]. Moreover, the residual activity was 87% in data set [7]; 100% in the data set with Bacillus cereus [8]; 100% in data set [9]; 100% in data set [10]; 73% in data set [11]; 95% in [12]. In data set [13], the residual activity was determined as 99%.
`CCOC(=O)CCC1(C(=O)OCC)CCC(=O)N1` (stereo not given): the residual activity is 94% in data set [1]; 100% with Bacillus cereus [2]; 98% in data set [3]; 100% in [4]; 100% in data set [5]; 96% in [6]. Also, the residual activity in data set [7] was 80%; in data set [9] it was 97%; in data set [10], 96%; in data set [11] it was 100%; in data set [12] it was 85%; in data set [13], 100%.
As to `O=C(O)CC(CC(=O)O)(NC(=O)COc1ccccc1)C(=O)O`, the residual activity came to 96% in data set [1]; 100% in the data set on Bacillus cereus [2]; 82% in [3]; 97% in [4]; 96% in [5]; 100% in [6]. Further, the residual activity in [7] was 100%; in [9], 84%; in data set [10], 70%; in data set [11], 100%; in [12], 80%; in data set [13], 85%.

B1: Beta-lactamase OXA-10 (Pseudomonas aeruginosa), P14489 (protein)
chain: MKTFAAYVIIACLSSTALAGSITENTSWNKEFSAEAVNGVFVLCKSSSKSCATNDLARASKEYLPASTFKIPNAIIGLETGVIKNEHQVFKWDGKPRAMKQWERDLTLRGAIQVSAVPVFQQIAREVGEVRMQKYLKKFSYGNQNISGGIDKFWLEGQLRISAVNQVEFLESLYLNKLSASKENQLIVKEALVTEAAPEYLVHSKTGFSGVGTESNPGVAWWVGWVEKETEVYFFAFNMDIDNESKLPLRKSIPTKIMESEGIIGG
Consider B1, for which, in data set [22], the Km turned out to be 20 µM and the kcat came to 400 s⁻¹.

B2: Imipenem-hydrolyzing beta-lactamase (Enterobacter cloacae), P52663 (protein)
chain: MSLNVKQSRIAILFSSCLISISFFSQANTKGIDEIKNLETDFNGRIGVYALDTGSGKSFSYRANERFPLCSSFKGFLAAAVLKGSQDNRLNLNQIVNYNTRSLEFHSPITTKYKDNGMSLGDMAAAALQYSDNGATNIILERYIGGPEGMTKFMRSIGDEDFRLDRWELDLNTAIPGDERDTSTPAAVAKSLKTLALGNILSEHEKETYQTWLKGNTTGAARIRASVPSDWVVGDKTGSCGAYGTANDYAVVWPKNRAPLIISVYTTKNEKEAKHEDKVIAEASRIAIDNLK
For B2, in [23], the Km worked out at 40 µM and the turnover number (kcat) stood at 130 s⁻¹.
